Measurements published in patent US20100075907A1, “NEUROMEDIN U RECEPTOR AGONISTS AND USES THEREOF” (priority 2006, published 2010).
Non-standard residues stand in square brackets, D forms with d. Residues, ends and D or L forms follow the SMILES beside them. No end group written: not given here. hArg = N=C(N)NCCCC[C@H](N)C(=O)O; dNle = CCCC[C@@H](N)C(=O)O

Molecular target: T1, hNMUR1 (Homo sapiens, UniProt Q9HB89)
T1 sequence (Q9HB89 1-426): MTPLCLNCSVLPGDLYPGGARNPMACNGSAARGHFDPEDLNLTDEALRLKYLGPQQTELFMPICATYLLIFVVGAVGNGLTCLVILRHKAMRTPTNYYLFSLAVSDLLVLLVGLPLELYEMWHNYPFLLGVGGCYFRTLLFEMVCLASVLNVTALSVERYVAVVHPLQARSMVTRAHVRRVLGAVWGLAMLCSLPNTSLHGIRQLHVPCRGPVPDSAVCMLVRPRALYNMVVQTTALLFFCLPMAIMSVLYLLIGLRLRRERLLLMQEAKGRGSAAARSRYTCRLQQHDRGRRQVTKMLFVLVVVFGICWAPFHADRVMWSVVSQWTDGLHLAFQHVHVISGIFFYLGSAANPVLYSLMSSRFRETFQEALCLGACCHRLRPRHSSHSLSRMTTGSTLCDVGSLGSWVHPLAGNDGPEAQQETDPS
Experiment: In vitro functional assay, HEK-hR1 cells
Format: cell-based
Set-up: expressed in transfected cells; host or cells: FLP-In CHO or HEK-293 FLP-In cells (pcDNA5); HEK-293/aeq17 lines (pIRES-puro) were also made
Source text: Human, mouse or rat cDNAs encoding NMUR1 or NMUR2 (as described in Howard et al. Nature 406: 70-74 (2000) were subcloned in pcDNA5 (Invitrogen) and transfected into FLP-In CHO cells and HEK-293 FLP-In cells purchased from Invitrogen (Carlsbad, Calif.) using lipofectamine (Invitrogen). The Flp-In system allows integration and expression of a particular gene of interest at a specific genomic location utilizing the Flp recombinase from yeast. The transfected cells were selected by growth in medium containing 200 μg/mL hygromycin (Invitrogen). Populations were frozen at early passage numbers, and these stocks were used for further studies. Stable clones that expressed the mRNAs were identified functionally by FLIPR as well as by RT-PCR. […] Two different rodent NMUR1 cell lines were thus generated: one with the codon as predicted from the genomic databases and another cell line with an engineered methionine (ATG) as the start codon. Additionally, stable cell lines expressing the human receptors were generated in HEK-293/aeq17 cells which stably express the aequorin gene under the CMV promoter. The human NMUR2 cDNA was cloned into pcDNA3.1 and human NMUR1 was subcloned into pIRES-puro (Clontech, Mountain View, Calif.), after transfection cells were selected in media containing G418 and either hygromycin (NMUR2) or puromycin (NMUR1).
The NMU receptors signal primarily through Gαq/11 proteins; therefore calcium mobilization assays can be utilized for functional activity.
Stable cell lines expressing human and or rodent NMUR1 or human NMUR2 receptors were plated at a density of 12,000 cells per well overnight on poly-lysine coated 384-well black-walled plates. The following day, the media was removed from the plates and the cells were subsequently loaded with Fluo-3 (Molecular Probes), a calcium sensitive dye, diluted in FLIPR buffer (1× Hank's buffered saline containing 20 mM HEPES, 0.1% BSA, 2.5 mM probenecid (Sigma) and 1.6 mM TR40). All reagents are from Invitrogen unless otherwise noted. Peptide stocks were resuspended in DMSO at a stock concentration of 2 mM and diluted in FLIPR buffer on the day of the experiment to a 4 μM working stock solution.
After a 90 minute incubation at room-temperature, cell plates were loaded onto a FLIPR (Molecular Devices) to monitor cellular fluorescence (excitation=488 nm; emission=540 nm) before and after compound/peptide addition. Eight to twelve point dose responses were tested on NMUR-expressing cell lines using FLIPR with 1 μM peptide as the highest dose. The response after peptide addition was taken as the maximum fluorescence units minus the fluorescence immediately prior to stimulation for each well. EC50 values were calculated using GraphPad Prism (San Diego, Calif.) software.
In addition to FLIPR, NMU receptor function can also be evaluated using an aequorin assay. Stable cell lines expressing the aequorin jelly fish gene can be used to report the activation of GPCRs by monitoring intracellular calcium mobilization. The objective is to identify compounds which specifically stimulate aequorin bioluminescence. Calcium-dependent luminescence is generated by the treatment of cells with the coelenterate luciferin, coelenterazine. Briefly, confluent monolayers of HEK-293/aeq 17 cells expressing hNMUR1 or hNMUR2 are “charged” with coelenterazine (Molecular Probes, Carlsbad, Calif.). Confluent T75 flasks are rinsed with media containing 300 μM glutathione and 0.1% FBS. Cells are incubated at 37° C. for one hour in 8 mL media, 0.1% FBS, 300 μM glutathione, and 20 μM coelenterazine. T75 flasks are subsequently rinsed with 6 mL ECB buffer (140 mM NaCl, 20 mM KCl, 20 mM HEPES, 5 mM glucose, 1 mM MgCl, 1 mM CaCl2, 0.1 mg/mL BSA, PH 7.3-7.4). Cells are removed from the flask in ECB buffer, pelleted, and resuspended at a density of 2×10^5 cells/mL. Agonists are added to the cells and activity is determined using a luminometer. […]

Compound: H-FRVDEEFQSPFASQSRGYFWRPRN-NH2 [Agonist G]
- % Activity (Table 8, HEK-hR1, functional): 91%

Compound: CCCC[C@@H](NC(=O)[C@H](CCCNC(=N)N)NC(=O)[C@H](C)NC(=O)[C@H](CCCNC(=N)N)NC(=O)[C@H](Cc1ccccc1)NC(=O)[C@H](CC(C)C)NC(=O)[C@H](Cc1ccccc1)NC(=O)[C@@H](N)Cc1c[nH]c2ccccc12)C(N)=O [Agonist K, WFLFRAR-(D-Nle)-CONH2] (H-WFLFRAR[dNle]-NH2)
- % Activity (Table 9, HEK-hR1, functional): 61%
- EC50 (Table 9, HEK-hR1, functional): 400 nM

Compound: CC(=O)N[C@@H](Cc1ccccc1)C(=O)N[C@H](CC(C)C)C(=O)N[C@@H](Cc1c[nH]c2ccccc12)C(=O)N[C@@H](CCCNC(=N)N)C(=O)N1CCC[C@H]1C(=O)N[C@@H](CCCNC(=N)N)C(=O)N[C@@H](CC(N)=O)C(N)=O [Agonist E, Ac-F-(D-L)-WRPRN-CONH2] (Ac-F[dL]WRPRN-NH2)
- % Activity (Table 8, HEK-hR1, functional): 100%

Compound: CC(C)C[C@H](NC(=O)[C@H](Cc1c[nH]c2ccccc12)NC(=O)[C@H](Cc1ccccc1)NC(=O)CNC(=O)[C@H](CCCNC(=N)N)NC(=O)[C@H](CO)NC(=O)[C@H](CCC(N)=O)NC(=O)[C@H](CO)NC(=O)[C@H](C)NC(=O)[C@H](Cc1ccccc1)NC(=O)[C@@H]1CCCN1C(=O)[C@H](CO)NC(=O)[C@H](CCC(N)=O)NC(=O)[C@H](Cc1ccccc1)NC(=O)[C@H](CCC(=O)O)NC(=O)[C@H](CCC(=O)O)NC(=O)[C@H](CC(=O)O)NC(=O)[C@@H](NC(=O)[C@H](CCCNC(=N)N)NC(=O)[C@@H](N)Cc1ccccc1)C(C)C)C(=O)N[C@@H](Cc1ccccc1)C(=O)N[C@@H](CCCNC(=N)N)C(=O)N[C@@H](C)C(=O)N[C@@H](CCCCNC(=N)N)C(=O)N[C@@H](CC(N)=O)C(N)=O [Agonist P] (H-FRVDEEFQSPFASQSRGFWLFRA[hArg]N-NH2; N-terminus assumed)
- % Activity (Table 9, HEK-hR1, functional): 11%

Compound: CC(C)C[C@H](NC(=O)[C@H](Cc1c[nH]c2ccccc12)NC(=O)[C@H](Cc1ccccc1)NC(=O)CNC(=O)[C@H](CCCNC(=N)N)NC(=O)[C@H](CO)NC(=O)[C@H](CCC(N)=O)NC(=O)[C@H](CO)NC(=O)[C@H](C)NC(=O)[C@H](Cc1ccccc1)NC(=O)[C@@H]1CCCN1C(=O)[C@H](CO)NC(=O)[C@H](CCC(N)=O)NC(=O)[C@H](Cc1ccccc1)NC(=O)[C@H](CCC(=O)O)NC(=O)[C@H](CCC(=O)O)NC(=O)[C@H](CC(=O)O)NC(=O)[C@@H](NC(=O)[C@H](CCCNC(=N)N)NC(=O)[C@@H](N)Cc1ccccc1)C(C)C)C(=O)N[C@@H](Cc1ccccc1)C(=O)N[C@@H](CCCNC(=N)N)C(=O)N1CCC[C@H]1C(=O)N[C@@H](CCCCNC(=N)N)C(=O)N[C@@H](CC(N)=O)C(N)=O [Agonist O] (H-FRVDEEFQSPFASQSRGFWLFRP[hArg]N-NH2; N-terminus assumed)
- % Activity (Table 9, HEK-hR1, functional): 35%
- EC50 (Table 9, HEK-hR1, functional): 420 nM

Compound: C[C@@H](NC(=O)[C@H](Cc1ccccc1)NC(=O)[C@@H](N)Cc1ccc(O)cc1)C(=O)N[C@@H](Cc1c[nH]c2ccccc12)C(=O)N[C@@H](CCCNC(=N)N)C(=O)N1CCC[C@H]1C(=O)N[C@@H](CCCNC(=N)N)C(=O)N[C@@H](CC(N)=O)C(N)=O [Agonist D, YF-(D-A)-WRPRN-CONH2] (H-YF[dA]WRPRN-NH2; N-terminus assumed)
- % Activity (Table 8, HEK-hR1, functional): 96%

Compound: H-FWLFRARN-NH2 [Agonist L]
- % Activity (Table 9, HEK-hR1, functional): 74%
- EC50 (Table 9, HEK-hR1, functional): > 1000 nM

Compound: CCCC[C@@H](NC(=O)[C@H](CCCNC(=N)N)NC(=O)[C@@H]1CCCN1C(=O)[C@H](CCCNC(=N)N)NC(=O)[C@H](Cc1ccccc1)NC(=O)[C@H](CC(C)C)NC(=O)[C@H](Cc1c[nH]c2ccccc12)NC(=O)[C@H](Cc1ccccc1)NC(=O)CNC(=O)[C@H](CCCNC(=N)N)NC(=O)[C@H](CO)NC(=O)[C@H](CCC(N)=O)NC(=O)[C@H](CO)NC(=O)[C@H](C)NC(=O)[C@H](Cc1ccccc1)NC(=O)[C@@H]1CCCN1C(=O)[C@H](CO)NC(=O)[C@H](CCC(N)=O)NC(=O)[C@H](Cc1ccccc1)NC(=O)[C@H](CCC(=O)O)NC(=O)[C@H](CCC(=O)O)NC(=O)[C@H](CC(=O)O)NC(=O)[C@@H](NC(=O)[C@H](CCCNC(=N)N)NC(=O)[C@@H](N)Cc1ccccc1)C(C)C)C(N)=O [Agonist Q] (H-FRVDEEFQSPFASQSRGFWLFRPR[dNle]-NH2)
- % Activity (Table 9, HEK-hR1, functional): 0%
- EC50 (Table 9, HEK-hR1, functional): > 1000 nM

Compound: H-YFGWRPRN-NH2 [Agonist C]
- % Activity (Table 8, HEK-hR1, functional): 87%
- IC50 (Table 8, HEK-hR1, functional): 1.1 nM

Compound: CC(C)C[C@@H](NC(=O)[C@H](Cc1ccccc1)NC(=O)[C@@H](N)Cc1ccc(O)cc1)C(=O)N[C@@H](Cc1c[nH]c2ccccc12)C(=O)N[C@@H](CCCNC(=N)N)C(=O)N1CCC[C@H]1C(=O)N[C@@H](CCCNC(=N)N)C(=O)N[C@@H](CC(N)=O)C(N)=O [Agonist B, YF-(D-L)-WRPRN-CONH2] (H-YF[dL]WRPRN-NH2)
- % Activity (Table 8, HEK-hR1, functional): 103%

Compound: Ac-FFRPRN-NH2 [Agonist F, Ac-FFRPRN-CONH2]
- % Activity (Table 8, HEK-hR1, functional): 96%
- IC50 (Table 8, HEK-hR1, functional): 42 nM

Compound: WALFRARN-NH2 [Agonist M]
- % Activity (Table 9, HEK-hR1, functional): 0%
- EC50 (Table 9, HEK-hR1, functional): > 1000 nM

Compound: CC(C)C[C@H](NC(=O)[C@H](Cc1ccccc1)NC(=O)[C@@H](N)Cc1ccc(O)cc1)C(=O)N[C@@H](Cc1ccccc1)C(=O)N[C@@H](CCCNC(=N)N)C(=O)N1CCC[C@H]1C(=O)N[C@@H](CCCNC(=N)N)C(=O)N[C@@H](CC(N)=O)C(N)=O [NMU-8, reference compound]
- % Activity (Table 9, HEK-hR1, functional): 100%

Compound: CC(C)C[C@H](NC(=O)[C@H](Cc1c[nH]c2ccccc12)NC(=O)[C@@H](N)Cc1ccccc1)C(=O)N[C@@H](Cc1ccccc1)C(=O)N[C@@H](CCCNC(=N)N)C(=O)N[C@@H](C)C(=O)N[C@@H](CCCCNC(=N)N)C(=O)N[C@@H](CC(N)=O)C(N)=O [Agonist J, FWLFRA-(Harg)-N-CONH2] (H-FWLFRA[hArg]N-NH2)
- % Activity (Table 9, HEK-hR1, functional): 0%
- EC50 (Table 9, HEK-hR1, functional): > 1000 nM

Compound: CC(C)C[C@H](NC(=O)[C@H](Cc1c[nH]c2ccccc12)NC(=O)[C@@H](N)Cc1ccccc1)C(=O)N[C@@H](Cc1ccccc1)C(=O)N[C@@H](CCCNC(=N)N)C(=O)N1CCC[C@H]1C(=O)N[C@@H](CCCCNC(=N)N)C(=O)N[C@@H](CC(N)=O)C(N)=O [Agonist I, FWLFRP-(Harg)-N-CONH2] (H-FWLFRP[hArg]N-NH2)
- % Activity (Table 9, HEK-hR1, functional): 7%
- EC50 (Table 9, HEK-hR1, functional): > 1000 nM

Compound: YFWRPRN-NH2 [Agonist A, YFWRPRN-CONH2]
- % Activity (Table 8, HEK-hR1, functional): 92%
- IC50 (Table 8, HEK-hR1, functional): 2.7 nM

Compound: FALFRPRN-NH2 [Agonist N]
- % Activity (Table 9, HEK-hR1, functional): 87%
